Experimental findings from patent US20140315889A1, “HYDROXAMATE DERIVATIVES FOR HDAC INHIBITOR, AND THE PHARMACEUTICAL COMPOSITION COMPRISING THEREOF” (CHONG KUN DANG PHARMACEUTICAL CORP., priority 2011, published 2014) are described below.

For orientation: IC50 means the point on the concentration scale where inhibition reaches its midpoint.

Where two headings read alike, the source gives them in different places.

Assay type in all cases: biochemical
The target of one experiment is T1, Human recombinant HDAC1 (Homo sapiens, UniProt Q13547).
T1 construct: purchased Enzo Life Science Co. (named for the kit; assigned to the enzyme from the BML- catalogue prefix) BML-SE456
Briefly: HDAC enzyme activity test, HDAC1. The following applies: Table 12; read-out: Inhibition ability (IC50) HDAC1. The protocol: (§1) Then, 0.3 μg of enzyme and 10 μM of substrate per well were added, reacted at 30° C. for 60 minutes. Thereto, Fluor de Lys® Developer II (BML-KI176) was added and reacted for 30 minutes. […] From the data, the respective IC50 were calculated by GraphPad Prism 4.0 program.

In a further experiment the target is T2, human recombinant HDAC6 (Homo sapiens, UniProt Q9UBN7).
T2 construct: purchased Calibiochem Co. (so in the source) 382180
T2 sequence (Q9UBN7 1-1215): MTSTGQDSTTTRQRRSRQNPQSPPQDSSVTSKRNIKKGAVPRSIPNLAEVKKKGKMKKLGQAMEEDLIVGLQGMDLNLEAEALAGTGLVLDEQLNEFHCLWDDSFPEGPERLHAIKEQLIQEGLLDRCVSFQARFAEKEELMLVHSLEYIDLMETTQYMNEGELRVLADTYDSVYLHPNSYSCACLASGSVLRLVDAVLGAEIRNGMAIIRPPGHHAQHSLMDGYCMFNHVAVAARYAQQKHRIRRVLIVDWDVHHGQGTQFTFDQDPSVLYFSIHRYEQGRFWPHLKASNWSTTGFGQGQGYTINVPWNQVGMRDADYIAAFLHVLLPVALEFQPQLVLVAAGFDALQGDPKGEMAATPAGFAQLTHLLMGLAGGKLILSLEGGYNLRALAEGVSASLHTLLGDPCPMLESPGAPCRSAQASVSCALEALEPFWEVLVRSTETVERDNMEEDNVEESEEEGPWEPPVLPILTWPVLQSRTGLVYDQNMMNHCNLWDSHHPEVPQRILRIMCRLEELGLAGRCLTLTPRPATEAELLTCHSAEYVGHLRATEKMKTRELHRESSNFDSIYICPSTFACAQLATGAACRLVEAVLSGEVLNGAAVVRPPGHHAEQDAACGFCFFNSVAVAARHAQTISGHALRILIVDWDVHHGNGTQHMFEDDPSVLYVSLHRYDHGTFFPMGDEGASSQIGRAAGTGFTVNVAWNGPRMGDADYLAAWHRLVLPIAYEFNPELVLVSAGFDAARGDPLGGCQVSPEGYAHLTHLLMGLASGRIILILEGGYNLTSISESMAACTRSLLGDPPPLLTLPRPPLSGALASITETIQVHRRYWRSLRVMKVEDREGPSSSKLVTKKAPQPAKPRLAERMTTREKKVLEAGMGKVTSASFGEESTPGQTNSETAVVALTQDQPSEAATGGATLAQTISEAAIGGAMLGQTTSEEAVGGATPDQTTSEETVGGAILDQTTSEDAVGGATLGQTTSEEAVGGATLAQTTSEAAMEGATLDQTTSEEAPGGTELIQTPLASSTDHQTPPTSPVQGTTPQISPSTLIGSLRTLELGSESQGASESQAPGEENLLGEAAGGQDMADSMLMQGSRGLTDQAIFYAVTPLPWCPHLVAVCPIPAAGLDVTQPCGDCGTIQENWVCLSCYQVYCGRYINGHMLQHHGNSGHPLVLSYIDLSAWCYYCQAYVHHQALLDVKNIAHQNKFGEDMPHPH
Briefly: HDAC enzyme activity test, HDAC6. The following applies: for Selectivity for HDAC6, HD1/HD6: ratio HDAC1 IC50 / HDAC6 IC50. The protocol:
as §1

The target in another experiment is T3, HDAC8 (Homo sapiens, UniProt Q9BY41).
T3 sequence (Q9BY41 1-377): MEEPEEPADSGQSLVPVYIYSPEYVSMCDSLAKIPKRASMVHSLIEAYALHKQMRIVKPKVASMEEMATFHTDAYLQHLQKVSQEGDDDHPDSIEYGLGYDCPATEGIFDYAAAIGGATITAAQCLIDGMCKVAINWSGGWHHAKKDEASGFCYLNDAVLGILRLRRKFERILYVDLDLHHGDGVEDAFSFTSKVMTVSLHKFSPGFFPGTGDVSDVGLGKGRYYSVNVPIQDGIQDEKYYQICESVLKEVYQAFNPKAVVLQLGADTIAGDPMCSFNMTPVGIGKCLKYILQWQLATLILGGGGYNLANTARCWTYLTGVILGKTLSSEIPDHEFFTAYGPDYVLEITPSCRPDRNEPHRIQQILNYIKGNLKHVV
The experiment can be described thus: HDAC enzyme activity test, HDAC8. The following applies: Table 11, eleven HDAC isozymes; read-out: Inhibition ability (IC50) against HDAC8. The protocol:
as §1

[1] abbreviates: Table 12, read-out: Inhibition ability (IC50) HDAC6.

T1 sequence (Q13547 whole entry): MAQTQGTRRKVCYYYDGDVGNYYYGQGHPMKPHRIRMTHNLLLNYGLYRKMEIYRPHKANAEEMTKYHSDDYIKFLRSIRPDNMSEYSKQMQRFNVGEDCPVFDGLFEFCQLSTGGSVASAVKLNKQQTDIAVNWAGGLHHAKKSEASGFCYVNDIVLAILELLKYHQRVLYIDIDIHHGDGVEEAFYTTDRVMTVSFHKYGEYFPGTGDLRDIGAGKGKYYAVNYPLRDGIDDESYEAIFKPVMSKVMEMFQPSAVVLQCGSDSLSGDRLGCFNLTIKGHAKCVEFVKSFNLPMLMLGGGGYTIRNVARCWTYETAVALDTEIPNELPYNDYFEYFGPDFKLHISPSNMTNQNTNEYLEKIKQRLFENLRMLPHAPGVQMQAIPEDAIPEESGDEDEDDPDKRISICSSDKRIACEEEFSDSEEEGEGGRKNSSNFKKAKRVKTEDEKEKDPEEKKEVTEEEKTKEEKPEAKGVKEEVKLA

With `CN1CCN(CC2CCc3c(c4ccccc4n3CCCCCC(=O)NO)C2=O)CC1` (stereo not drawn) [Compound 205, N-hydroxy-6-(3-((4-methylpiperazin-1-yl)methyl)-4-oxo-1,2,3,4-tetrahydrocarbazol-9-yl)hexanamide], the concentration for half-maximal inhibition (IC50) at Human recombinant HDAC1 is 3170 nM; at human recombinant HDAC6 (setting [1]), 46 nM. In addition, at human recombinant HDAC6 (Table 12), the “Selectivity for HDAC6, HD1/HD6” value came out at 69.
Taken in the same sequence, the figures for `CC(C)N1CCN(CC2CCc3c(c4cc(F)ccc4n3Cc3ccc(C(=O)NO)cc3)C2=O)CC1` (stereo not drawn) [Compound 188, 4-((6-fluoro-3-((4-isopropylpiperazin-1-yl)methyl)-4-oxo-1,2,3,4-tetrahydrocarbazol-9-yl)methyl)-N-hydroxybenzamide] were 2260 nM, 45.3 nM and 49.9.
The like results for `O=C(NO)c1ccc(Cn2c3c(c4cc(F)ccc42)C(=O)C(CN2CC(F)(F)C2)CC3)cc1` (stereo not drawn) [Compound 145, 4-((3-((3,3-difluoroazetidin-1-yl)methyl)-6-fluoro-4-oxo-1,2,3,4-tetrahydrocarbazol-9-yl)methyl)-N-hydroxybenzamide] were, in that order, 7230 nM, 7.8 nM and 925.1.
As for `O=C(NO)c1ccc(Cn2c3c(c4cc(F)ccc42)C(=O)N(CCN2CCC[C@H]2CO)CC3)cc1` [Compound 290, (S)-4-((8-fluoro-2-(2-(2-(hydroxymethyl)pyrrolidin-1-yl)ethyl)-1-oxo-1,2,3,4-tetrahydropyrido[4,3-b]indol-5-yl)methyl)-N-hydroxybenzamide], the half-inhibitory concentration (IC50) at Human recombinant HDAC1 was 6410 nM; on human recombinant HDAC6 (setting [1]), 2.19 nM. The “Selectivity for HDAC6, HD1/HD6” value at human recombinant HDAC6 (Table 12) is recorded as 2925.1. For the same molecule, the “selectivity for HDAC6 over HDAC1” value on human recombinant HDAC6 (from the data of Table 12) is listed as “more than 2,900 times”.
Take `COC[C@@H]1CCCN1CCN1CCc2c(c3cc(F)ccc3n2Cc2ccc(C(=O)NO)cc2)C1=O` [Compound 285, (S)-4-((8-fluoro-2-(2-(2-(methoxymethyl)pyrrolidin-1-yl)ethyl)-1-oxo-1,2,3,4-tetrahydropyrido[4,3-b]indol-5-yl)methyl)-N-hydroxybenzamide]: the IC50 was 13200 nM on Human recombinant HDAC1 and 22.5 nM at human recombinant HDAC6 (setting [1]). Also, on human recombinant HDAC6 (Table 12), the “Selectivity for HDAC6, HD1/HD6” value is recorded as 588.2.
Taken in the same sequence, the figures for `CCN1CCN(CC2CCc3c(c4ccccc4n3Cc3ccc(C(=O)NO)cc3)C2=O)CC1` (stereo not drawn) [Compound 112, 4-((3-((4-ethylpiperazin-1-yl)methyl)-4-oxo-1,2,3,4-tetrahydrocarbazol-9-yl)methyl)-N-hydroxy benzamide] were 4620 nM, 14.9 nM and 310.6.
`Cc1nccn1CC1CCc2c(c3ccccc3n2CCCCCC(=O)NO)C1=O` (stereo not drawn) [Compound 194, N-hydroxy-6-(3-((2-methyl-1H-imidazol-1-yl)methyl)-4-oxo-1,2,3,4-tetrahydrocarbazol-9-yl)hexanamide]: the half-maximal inhibitory concentration (IC50) was 3080 nM on Human recombinant HDAC1 and 23.5 nM at human recombinant HDAC6 (setting [1]). Also, the “Selectivity for HDAC6, HD1/HD6” value on human recombinant HDAC6 (Table 12) is given as 131.3.
Taken in the same sequence, the figures for `O=C(CCCCCCn1c2c(c3cc(F)ccc31)C(=O)C(CN1CCOCC1)CC2)NO` (stereo not drawn) [Compound 344, 7-(6-fluoro-3-(morpholinomethyl)-4-oxo-1,2,3,4-tetrahydrocarbazol-9-yl)-N-hydroxyheptanamide] were 102 nM, 16.2 nM and 6.3.
On to `CC1(C)CC(=O)c2c(n(CCCCCC(=O)NO)c3ccc(F)cc23)C1` [Compound 55, 6-(6-fluoro-2,2-dimethyl-4-oxo-1,2,3,4-tetrahydrocarbazol-9-yl)-N-hydroxyhexanamide], for which the 50% inhibitory concentration (IC50) at HDAC8 came to 507 nM; on Human recombinant HDAC1, 4080 nM; on human recombinant HDAC6 (Table 11, eleven HDAC isozymes, read-out: Inhibition ability (IC50) against HDAC6) it was 228 nM; at human recombinant HDAC6 (setting [1]) it was 56.4 nM. Moreover, the “Selectivity for HDAC6, HD1/HD6” value on human recombinant HDAC6 (Table 12) worked out at 72.5.
`O=C(NO)c1ccc(Cn2c3c(c4cc(F)ccc42)C(=O)N(CCN2CCC(CO)CC2)CC3)cc1` [Compound 286, 4-((8-fluoro-2-(2-(4-(hydroxymethyl)piperidin-1-yl)ethyl)-1-oxo-1,2,3,4-tetrahydropyrido[4,3-b]indol-5-yl)methyl)-N-hydroxybenzamide]: the IC50 at Human recombinant HDAC1 was 10600 nM; at human recombinant HDAC6 (setting [1]) it was 17.4 nM. Further, the “Selectivity for HDAC6, HD1/HD6” value at human recombinant HDAC6 (Table 12) was found to be 607.
Regarding `O=C(CCCCCn1c2c(c3cc(F)ccc31)C(=O)C(CN1CCOCC1)CC2)NO` (stereo not drawn) [Compound 321, 6-(6-fluoro-3-(morpholinomethyl)-4-oxo-1,2,3,4-tetrahydrocarbazol-9-yl)-N-hydroxyhexanamide], the IC50 on Human recombinant HDAC1 was 13300 nM; at human recombinant HDAC6 (setting [1]), 110 nM. Besides, at human recombinant HDAC6 (Table 12), the “Selectivity for HDAC6, HD1/HD6” value is listed as 121.8.
The like results for `CC1(C)CC(=O)c2c(n(CCCCCCC(=O)NO)c3c(Cl)cc(Cl)cc23)C1` [Compound 51, 7-(1,3-dichloro-7,7-dimethyl-5-oxo-5,6,7,8-tetrahydrocarbazol-9-yl)-N-hydroxyheptanamide] were, in that order, 1330 nM, 106 nM and 12.5.
Turning to `Cc1cc2c(n1CCCCCCC(=O)NO)CC(C)(C)CC2=O` [Compound 347, N-hydroxy-7-(2,6,6-trimethyl-4-oxo-4,5,6,7-tetrahydroindol-1-yl)heptanamide], the concentration for half-maximal inhibition (IC50) worked out at 453 nM on Human recombinant HDAC1 and 27 nM at human recombinant HDAC6 (setting [1]). At human recombinant HDAC6 (Table 12), the “Selectivity for HDAC6, HD1/HD6” value was 16.8.
Taken in the same sequence, the figures for `CC1(C)CC(=O)c2c(n(CCCCCCC(=O)NO)c3ccccc23)C1` [Compound 20, 7-(2,2-dimethyl-4-oxo-1,2,3,4-tetrahydrocarbazol-9-yl)-N-hydroxyheptanamide] were 125 nM, 7.44 nM and 16.8.
Taken in the same sequence, the figures for `CC1(C)CC(=O)c2c(n(CCCCCC(=O)NO)c3cc(Br)ccc23)C1` [Compound 41, 6-(7-bromo-2,2-dimethyl-4-oxo-1,2,3,4-tetrahydrocarbazol-9-yl)-N-hydroxyhexanamide] were 98.8 nM, 1.95 nM and 50.7.
The like results for `Cc1nccn1CC1CCc2c(c3cc(F)ccc3n2Cc2ccc(C(=O)NO)cc2)C1=O` (stereo not drawn) [Compound 158, 4-((6-fluoro-3-((2-methyl-1H-imidazol-1-yl)methyl)-4-oxo-1,2,3,4-tetrahydrocarbazol-9-yl)methyl)-N-hydroxybenzamide] were, in that order, 5140 nM, 8.52 nM and 602.7.
With `Cc1cc2c(n1CCCCCCC(=O)NO)CCCC2=O` [Compound 346, N-hydroxy-7-(2-methyl-4-oxo-4,5,6,7-tetrahydroindol-1-yl)heptanamide], the half-inhibitory concentration (IC50) on Human recombinant HDAC1 worked out at 255 nM; at human recombinant HDAC6 (setting [1]), 25 nM. On human recombinant HDAC6 (Table 12), the “Selectivity for HDAC6, HD1/HD6” value came out at 10.2.
Taken in the same sequence, the figures for `CC(C)(C)OC(=O)N1CCN(CC2CCc3c(c4cc(F)ccc4n3Cc3ccc(C(=O)NO)cc3)C2=O)CC1` (stereo not drawn) [Compound 144, tert-butyl 4-((6-fluoro-9-(4-(hydroxycarbamoyl)benzyl)-4-oxo-2,3,4,9-tetrahydro-1H-carbazol-3-yl)methyl)piperazin-1-carboxylate] were 8410 nM, 27.1 nM and 310.9.
